The target in one data set is tau (Mus musculus, UniProt P10637). Kind of data set: Intragastrical gavage in wild-type mice, brain tau by Western blotting. Format: in vivo. As to conditions: 4 m-old wild-type mice; intragastrical gavage 20 mg/kg; 48 h. As for the experimental part: The cells or hippocampal/cortex tissues were homogenized for ~ 30 min on ice in buffer [50 mM Tris·HCl pH 7.4-7.5, 100 mM NaCl, 1% (vol/vol) Triton X-100, 5 mM EDTA, 1:100 PMSF, 1:1,000 protease inhibitor cocktail containing 4-(2-Aminoethyl)-benzenesulfonyl fluoride hydrochloride, aprotinin, bestatin, leupeptin, E-64, and pepstatin A stored at 4 °C], and then centrifuged at 12,000 × g at 4 °C for 20 min. The supernatant was collected and the protein levels were analyzed using bicinchoninic acid (BCA, KF016, Sigma-Aldrich) by following the manufacturer's instruction (served as soluble protein). The pellet was further incubated with 8% (wt/vol) SDS buffer at 4 °C and then treated by ultrasonic wave to reach a complete resuspension. The suspension was spun (18,000 × g, 4 °C for 20 min) and the supernatant collected (served as insoluble fraction). The supernatant of different faction was respectively mixed with loading buffer (3:1, vol/vol) containing 200 mM Tris-HCl, pH 6.8, 8% SDS, 40% glycerol, and boiled for 10 min. For Western blotting, the proteins were separated by 10% SDS-polyacrylamide gel via electrophoresis for about 2 h and transferred to nitrocellulose membranes ([…]) for 1 h. […] Immunoreactive bands were quantitatively analyzed by Image J2x software.

The nature of data set [1]: Pharmacokinetics study, plasma and brain concentration by LC-MS/MS. Format: in vivo. To be noted: male, mouse, sc, C57BL/6 mice, subcutaneous 3 mg/kg. On the procedure: Male C57BL/6 mice (age of 6-8 weeks with bodyweight 21-23 g; N = 24) were purchased from JH Laboratory Animal Co. LTD. Subcutaneous injection dosing solution was prepared by diluting C004019 stock solution in 20% HP-β-CD in saline. The animals were administrated with C004019 at a dose of 3 mg/kg (10 mL/kg) via subcutaneous injection (N = 3 per timepoint), and then were anaesthetized via isoflurane at the designated time points, followed by collection of approximately 110 µL of blood sample into EDTA-2K tubes via retro-orbital puncture or cardiac puncture for terminal bleeding. The brain samples were collected at the designated time points after blood collection. All the samples were first maintained in wet ice and then the blood samples were centrifuged (2000 g, 4 °C, 5 min) to obtain plasma within 15 minutes post sampling. Afterwards, all the plasma samples and brain samples were stored at approximately -70 °C until analysis. The concentration of C004019 in plasma and brain was determined using liquid chromatograph mass spectrometry/mass spectrometry (LC-MS/MS) with a UPLC/MS-MS-015 (QTRAP 5500).

A further data set deals with 3xTg-AD mice. Kind of data set: Multiple-doses subcutaneous administration in 3xTg-AD mice, behavior and synaptic function. Format: in vivo, mouse. As to conditions: 9.5 m-old 3xTg-AD mice, subcutaneous 3 mg/kg every 6 days, 5 times. As for the experimental part: The Open field (OF) test was consisted of a 5 min session in a quadrate chamber (white opaque plastic). The chamber was divided into 16 square regions, a central field (center 4 square regions) and a periphery field. Each mouse was placed in the same position at the start of the test. Behaviors were recorded and analyzed by the video tracking system (Chengdu Taimeng Software Co., Ltd, China).
For novel object recognition (NOR) test, the mice were habituated to a quadrate chamber (white opaque plastic) for 5 min without objects 24 h prior to the test. The chamber was cleaned with 75% ethanol between each habituation period. The day after the mice re-entered the chamber from the same starting point and were given 10 min to familiarize themselves with the object A and object B. After each period the chamber and objects were cleaned with 75% ethanol. The next day after the familiarization period, object B was replaced with noval object C, and the mice were given 10 min to explore both objects. The exploring time in object A (TA) and C (TC) was recorded using the video tracking system. The discrimination index was calculated by (TC-TA)/(TA+TC).
The Elevated plus maze (EPM) test was performed as follows: mice were placed at the junction of the four arms of the maze (white opaque plastic), and started the test from facing an open arm. The chambers were cleaned with 75% ethanol before the next mouse was trained. The entries and duration time in each arm were recorded for 5 min by the video tracking system (Chengdu Taimeng Software Co., Ltd, China). An increase in open arm activity (duration and/or entries) reflects anti-anxiety behavior.
The Morris water maze (MWM) test was conducted to assess the spatial learning and memory. The maze was filled with water and divided into 4 quadrants with a platform placed in one quadrant. The mice were trained to find the hidden platform for 6 consecutive days, and underwent […] training trials (once per quadrant) per day from 14:00 to 20:00 pm. In each training trial, the mouse started from one of four quadrants facing the wall of the pool and the trial ended when the animal climbed on the platform. […] The spatial memory was tested 1 d after the last training by removed the platform. The longer a mouse stayed in the previous platform-located quadrant, the better it scored the spatial memory. A video camera, fixed to the ceiling 1.5 m from the water surface, was used to record the swimming path and the time for mice to find the platform (latency) or to pass through the previous platform-located quadrant each day. The camera was connected to a digital-tracking device attached to an IBM computer (Armonk, NY).
For fear conditioning (FC) test, the mice were placed into a square chamber with a grid floor. On the first day (day 1), each mouse was habituated to the chamber for 3 min, and then a foot shock (0.9 mA, 3 s) was delivered. Three sequential foot shocks at 3 min intervals were applied. Then the mice were returned to their home cages. On the next day (day 2), the mice were exposed to the same chamber without any stimulus for 3 min. The contextual conditioning was assessed by recording freezing behavior during the 3 min exposure. Freezing time during the 3 min was recorded for assessment of memory.
Mice used for electrophysiology experiments were deeply anesthetized as described above. When all pedal reflexes were abolished, brains were removed and placed in ice-cold oxygenated slicing solution containing the following: 225 mM sucrose, 3 mM KCl, 1.25 mM NaH2PO4, 24 mM NaHCO3, 6 mM MgSO4, 0.5 mM CaCl2, and 10 mM D-glucose. Coronal slices (300 μm thickness) were cut at 4-5 °C in the slicing solution using a Leica VT1000S vibratome and then transferred to an incubation chamber filled with oxygenated slicing solution in a 30 °C water bath for 1 h before being recorded. […]

Each structure is given as a SMILES string. Where two headings read alike, the source gives them in different places.

tau, sequence (P10637 114-430 isoform P10637-2 limits assumed): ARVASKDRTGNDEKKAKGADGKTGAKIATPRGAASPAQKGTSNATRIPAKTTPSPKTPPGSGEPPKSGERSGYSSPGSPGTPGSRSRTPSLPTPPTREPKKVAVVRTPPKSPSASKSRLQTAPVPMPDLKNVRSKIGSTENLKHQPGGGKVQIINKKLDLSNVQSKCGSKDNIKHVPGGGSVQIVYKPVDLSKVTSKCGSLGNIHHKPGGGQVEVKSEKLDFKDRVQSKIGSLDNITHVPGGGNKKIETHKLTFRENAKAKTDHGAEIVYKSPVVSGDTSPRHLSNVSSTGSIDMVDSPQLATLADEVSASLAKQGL

A word on the Tmax: it is the time at which the peak concentration occurs. `CC(=O)N1CCCN(c2nc(NCCc3cccs3)nc(N(C)CC(=O)NCCOCCOCCOCC(=O)N[C@H](C(=O)N3C[C@H](O)C[C@H]3C(=O)NCc3ccc(-c4scnc4C)cc3)C(C)(C)C)n2)CC1` [C004019]: on tau, the “tau level in hippocampus and cortex” value is reported as “no significant tau reduction was detected”. Also, the brain-to-plasma Cmax ratio in data set [1] (brain/plasma, read-out: ratio of brain tissue maximal concentration to the plasma maximal concentration (Kpuu value)) is 0.00866. Moreover, the AUC(0-inf) in data set [1] (brain, read-out: AUCINF in brain) worked out at 12.6 ng·h/mL; in data set [1] (plasma, read-out: AUCINF in plasma) it was 1800 ng·h/mL. For the same compound, the AUC(0-t) in data set [1] (brain, read-out: AUClast in brain) was found to be 8.42 ng·h/mL; in data set [1] (plasma, read-out: AUClast in plasma), 1190 ng·h/mL. For the same compound, the Cmax in data set [1] (brain, read-out: Cmax in brain (maximal brain concentration)) was determined as 10.8 ng/mL; in data set [1] (plasma, read-out: Cmax in plasma), 1250 ng/mL. For the same compound, the MRT inf in data set [1] (brain, read-out: MRTINF in brain) was determined as 1.8 h; in data set [1] (plasma, read-out: MRTINF in plasma) it was 1.87 h. Also, the half-life was 1.29 h in data set [1] (brain, read-out: T1/2 in brain (converted)) and 1.33 h in data set [1] (plasma, read-out: T1/2 in plasma (converted)). Moreover, the Tmax in data set [1] (brain, read-out: Tmax in brain) is 0.167 h; in data set [1] (plasma, read-out: Tmax in plasma), 0.167 h. Further, the “FC test, freezing index” value in the data set with 3xTg-AD mice is “restored the freezing index”. For the same compound, the “NOR test, discrimination index” value with 3xTg-AD mice was “almost completely restored the memory ability”. In the data set with 3xTg-AD mice, the “motor and anxiety levels (OF and EPM tests)” value was “did not significantly affect the motor and anxiety levels”. Also, the “MWM test, latency to reach the platform” value with 3xTg-AD mice (6 days learning trial) is listed as “shorter latency to reach the platform”. In the data set with 3xTg-AD mice (Golgi-cox staining), the spine density result is on record as “restored spine density”. Besides, the neurite arborization entry in the data set with 3xTg-AD mice (Sholl analysis) is listed as “didn't have any effect on neurite arborization”. In addition, the “LTP induction (fEPSP amplitude and slope)” value with 3xTg-AD mice (hippocampal slices) is “restored”.

The values above are taken from publication PMC8039949, “A novel small-molecule PROTAC selectively promotes tau clearance to improve cognitive functions in Alzheimer-like models” (Theranostics, 2021).
